From patent US8883789B2, “Piperazine derivatives and their use as positive allosteric modulators of mGluR5 receptors” (Boehringer Ingelheim International GmbH, priority 2011, dated 2014)

Biological target: T1, human recombinant mGluR5 (Homo sapiens, UniProt P41594)
T1 construct: expressed in transfected cells; hygromycin and geneticin selection
Assay: positive modulation of mGluR5, calcium based FLIPR assay
Conditions: HEK 293 cell line expressing human recombinant mGluR5; Ca2+ peak height after glutamate at approximately 5% basal stimulation; nonlinear regression
Procedure, shortened: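 HEK293 cells with tetracycline-free induction, Calcium-4 dye-loaded in Ringer pH 7.4. Compound added 5 min before glutamate at ~5% of maximal effect, 1% DMSO. EC50 from peak Ca2+ fluorescence, normalized to basal glutamate (100%) and 10 μM CDPPB (200%), via nonlinear regression.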

T1 sequence (P41594 21-1212): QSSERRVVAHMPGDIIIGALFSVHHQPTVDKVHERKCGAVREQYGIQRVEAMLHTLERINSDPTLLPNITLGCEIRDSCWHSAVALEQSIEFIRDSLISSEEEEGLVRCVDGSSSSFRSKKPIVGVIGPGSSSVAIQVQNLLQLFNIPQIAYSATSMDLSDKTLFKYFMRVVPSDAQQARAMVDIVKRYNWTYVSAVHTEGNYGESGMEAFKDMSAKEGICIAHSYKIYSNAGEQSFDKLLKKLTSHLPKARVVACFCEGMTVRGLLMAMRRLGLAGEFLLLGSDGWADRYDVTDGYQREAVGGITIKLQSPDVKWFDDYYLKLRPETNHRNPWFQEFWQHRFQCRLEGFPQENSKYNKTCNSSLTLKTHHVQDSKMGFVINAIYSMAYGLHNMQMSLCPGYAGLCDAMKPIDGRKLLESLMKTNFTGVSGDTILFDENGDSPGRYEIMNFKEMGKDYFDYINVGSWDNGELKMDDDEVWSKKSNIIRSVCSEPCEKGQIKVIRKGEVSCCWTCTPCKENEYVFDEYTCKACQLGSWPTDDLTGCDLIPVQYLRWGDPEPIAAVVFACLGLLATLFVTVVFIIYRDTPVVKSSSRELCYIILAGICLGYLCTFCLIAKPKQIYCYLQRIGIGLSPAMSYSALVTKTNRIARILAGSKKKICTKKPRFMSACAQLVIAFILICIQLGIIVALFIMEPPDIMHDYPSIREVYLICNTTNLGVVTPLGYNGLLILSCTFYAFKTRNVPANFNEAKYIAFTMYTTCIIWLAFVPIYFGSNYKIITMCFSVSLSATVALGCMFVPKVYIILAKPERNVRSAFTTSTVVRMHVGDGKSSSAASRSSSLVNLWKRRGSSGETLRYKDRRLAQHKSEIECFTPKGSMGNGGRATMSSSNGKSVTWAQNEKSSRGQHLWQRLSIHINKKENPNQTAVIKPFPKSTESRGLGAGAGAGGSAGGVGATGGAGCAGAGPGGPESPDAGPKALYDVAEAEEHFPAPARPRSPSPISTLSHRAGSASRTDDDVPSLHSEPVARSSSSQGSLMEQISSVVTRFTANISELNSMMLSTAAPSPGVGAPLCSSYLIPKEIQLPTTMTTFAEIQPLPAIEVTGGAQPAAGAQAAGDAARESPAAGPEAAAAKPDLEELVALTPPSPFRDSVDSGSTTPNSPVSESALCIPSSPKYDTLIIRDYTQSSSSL

EC50 [nM] | SMILES
1510 | Cc1cc(-n2cnc(C(=O)N3CCN(C(=O)c4c(C)oc5ccccc45)CC3(C)C)n2)ccc1F [Example 163]
157 | Cc1ccc(Cl)cc1C(=O)N1CCN(C(=O)c2ncn(-c3ccccc3)n2)C(C)(C)C1 [Example 154]
1620 | Cc1cccc(-n2cnc(C(=O)N3CCN(C(=O)c4oc5ccc(F)cc5c4C)C(C)C3)n2)c1 (centres unmarked) [Example 236]
269 | COc1cccc(C(=O)N2CCN(C(=O)c3ncn(-c4cccc(C)c4)n3)C(C)C2)n1 (centres unmarked) [Example 296, [4-(6-Methoxy-pyridine-2-carbonyl)-2-methyl-piperazin-1-yl]-(1-m-tolyl-1H-[1,2,4]-triazol-3-yl)-methanone]
1080 | Cc1c(C(=O)N2CCN(C(=O)c3ncn(-c4ccccc4)n3)C(C)C2)oc2ccc(F)cc12 (centres unmarked) [Example 294]
441 | COc1nc(C(=O)N2CCN(C(=O)c3ncn(-c4ccc(C)c(F)c4)n3)C(C)(C)C2)cc2ccccc12 [Example 158]
15 | CC1(C)CN(C(=O)c2cccc(C(F)(F)F)n2)CCN1C(=O)c1nnn(-c2ccccc2)n1 [Example 168]
330 | CC1CN(C(=O)c2ncn(-c3cccc(Cl)c3)n2)CCN1C(=O)c1cc2c(Cl)cccc2s1 (centres unmarked) [Example 223]
174 | CC1CN(C(=O)c2ncn(-c3cccc(Cl)c3)n2)CCN1C(=O)c1cc(Cl)c2c(c1)OCCO2 (centres unmarked) [Example 221]
326 | Cc1cccc(-n2cnc(C(=O)N3CCN(C(=O)c4cc(Cl)c5c(c4)OCCO5)C(C)C3)n2)c1 (centres unmarked) [Example 239]
168 | CCC[C@H]1CN(C(=O)c2ncn(-c3cccc(F)c3)n2)CCN1C(=O)c1cccc(OC)n1 [Example 261, (S)-{4-[1-(3-Fluoro-phenyl)-1H-[1,2,4]triazole-3-carbonyl]-2-propyl-piperazin-1-yl}-(6-methoxy-pyridin-2-yl)-methanone]
404 | Cc1c(C(=O)N2CCN(C(=O)c3ncn(-c4cccc(Cl)c4)n3)CC2C)oc2ccccc12 (centres unmarked) [Example 228]
169 | COc1cccc(C(=O)N2CCN(C(=O)c3ncn(-c4cccc(Cl)c4)n3)C[C@H]2C)n1 [Example 248, (R)-{4-[1-(3-Chloro-phenyl)-1H-[1,2,4]triazole-3-carbonyl]-2-methyl-piperazin-1-yl}-(6-methoxy-pyridin-2-yl)-methanone]
102 | COc1cccc(C(=O)N2CCN(C(=O)c3nnn(-c4ccccc4F)n3)C(C)(C)C2)n1 [Example 201]
613 | CC1(C)CN(C(=O)c2nccc(C(F)(F)F)n2)CCN1C(=O)c1ncn(-c2ccccc2)n1 [Example 147]

Second part, the molecule before the results:

SMILES | EC50 [nM]
CC1(C)CN(C(=O)c2cccc(-c3cccc(C#N)c3)c2)CCN1C(=O)c1ncn(-c2cccc(Cl)c2)n1 [Example 55] | 64
Cc1oc2ccc(Br)cc2c1C(=O)N1CCN(C(=O)c2ncn(-c3ccccc3)n2)C(C)(C)C1 [Example 100] | 29
Cc1oc2ccc(F)cc2c1C(=O)N1CCN(C(=O)c2ncn(-c3ccccc3)n2)C(C)(C)C1 [Example 102] | 49
CC1(C)CN(C(=O)c2cccc(OC(F)(F)F)c2)CCN1C(=O)c1ncn(-c2cccc(Cl)c2)n1 [Example 37] | 388
COc1cccc(C(=O)N2CCN(C(=O)c3ncn(-c4ccccc4)n3)C(C)(C)C2)n1 [Example 109] | 128
Cc1cc2cc(C(=O)N3CCN(C(=O)c4ncn(-c5ccccc5)n4)C(C)(C)C3)ccc2[nH]1 [Example 142] | 122
CC(C)c1ccc(C(=O)N2CCN(C(=O)c3ncn(-c4cccc(Cl)c4)n3)C(C)(C)C2)cc1 [Example 61] | 96
CC1(C)CN(C(=O)c2cccc3c2OCO3)CCN1C(=O)c1ncn(-c2cccc(Cl)c2)n1 [Example 48] | 127
CC1(C)CN(C(=O)c2cccc(C(F)(F)F)n2)CCN1C(=O)c1ncn(-c2cccc(Cl)c2)n1 [Example 13] | 22
CC1(C)CN(C(=O)c2cc3ccccc3c(OCC3CC3)n2)CCN1C(=O)c1ncn(-c2ccccc2)n1 [Example 103] | 49
CC1(C)CN(C(=O)c2cc3ccccc3c(OC3CCCC3)n2)CCN1C(=O)c1ncn(-c2ccccc2)n1 [Example 115] | 158
Cc1noc(C)c1-c1cccc(C(=O)N2CCN(C(=O)c3ncn(-c4cccc(Cl)c4)n3)C(C)(C)C2)n1 [Example 90, [1-(3-Chloro-phenyl)-1H-[1,2,4]triazol-3-yl]-{4-[6-(3,5-dimethyl-isoxazol-4-yl)-pyridine-2-carbonyl]-2,2-dimethyl-piperazin-1-yl]-methanone] | 38
CC1(C)CN(C(=O)c2ccc(Cl)c(Cl)c2)CCN1C(=O)c1ncn(-c2cccc(Cl)c2)n1 [Example 27] | 80
COc1cc(C)cc(C(=O)N2CCN(C(=O)c3ncn(-c4cccc(Cl)c4)n3)C(C)(C)C2)n1 [Example 22] | 58
CC(=O)c1cccc(C(=O)N2CCN(C(=O)c3ncn(-c4ccccc4)n3)C(C)(C)C2)n1 [Example 124] | 145
CC1(C)CN(C(=O)c2cc3ccccc3cn2)CCN1C(=O)c1ncn(-c2cccc(Cl)c2)n1 [Example 35] | 350
COc1cccc(-c2cccc(C(=O)N3CCN(C(=O)c4ncn(-c5cccc(Cl)c5)n4)C(C)(C)C3)c2)c1 [Example 69] | 53
